According to ChEMBL document CHEMBL5108078, “Design and Synthesis of Phenyl Sulfide-Based Cationic Amphiphiles as Membrane-Targeting Antimicrobial Agents against Gram-Positive Pathogens” (J Med Chem, 2022):
In brackets after ≈: the same amount, converted by molar mass. Activity calls are given as the source filed them. No cut-off for these calls is given here.

Assays:
[1] = Hemolytic activity in rabbit RBC incubated for 1 hr by microplate reader analysis; assay type: toxicity, cell-based, Oryctolagus cuniculus, Erythrocyte; details: rabbit red blood cells (erythrocytes)
Staphylococcus aureus [2] = test: Antibacterial activity against Staphylococcus aureus ATCC 29213 assessed as inhibition of bacterial growth incubated for 24 hrs by microbroth dilution method; assay type: functional
Staphylococcus aureus [3] = test: Antibacterial activity against methicillin resistant Staphylococcus aureus N315 assessed as inhibition of bacterial growth incubated for 24 hrs by microbroth dilution method; assay type: functional
Staphylococcus aureus [4] = test: Antibacterial activity against methicillin resistant Staphylococcus aureus NCTC10442 assessed as inhibition of bacterial growth incubated for 24 hrs by microbroth dilution method; assay type: functional
Bacillus subtilis = test: Antibacterial activity against Bacillus subtilis CMCC63501 assessed as inhibition of bacterial growth incubated for 24 hrs by microbroth dilution method; assay type: functional
[5] = system: Staphylococcus epidermidis; test: Antibacterial activity against Staphylococcus epidermidis ATCC 12228 assessed as inhibition of bacterial growth incubated for 24 hrs by microbroth dilution method; assay type: functional
[6] = system: Staphylococcus epidermidis; test: Antibacterial activity against Staphylococcus epidermidis CMCC26069 assessed as inhibition of bacterial growth incubated for 24 hrs by microbroth dilution method; assay type: functional
Enterococcus faecalis = test: Antibacterial activity against Enterococcus faecalis ATCC 29212 assessed as inhibition of bacterial growth incubated for 24 hrs by microbroth dilution method; assay type: functional
Staphylococcus aureus [7] = test: Antibacterial activity against Staphylococcus aureus ATCC 29213 assessed as inhibition of bacterial growth in presence of 20 umol/L Fe2+ (reference value: […] microg/ml); assay type: functional
Staphylococcus aureus [8] = test: Bactericidal activity against Staphylococcus aureus ATCC 29213 at 4 to 8 times MIC after 0.5 hrs by time kill assay; assay type: functional
Staphylococcus aureus [9] = test: Bactericidal activity against Staphylococcus aureus ATCC 29213 at 4 to 8 times MIC after 24 hrs by time kill assay; assay type: functional, organism-based
Staphylococcus aureus [10] = test: Antibacterial activity against Staphylococcus aureus ATCC 29213 assessed as inhibition of bacterial growth in presence of 140 mmol/L Na+ (reference value: […] microg/ml); assay type: functional
Staphylococcus aureus [11] = test: Antibacterial activity against Staphylococcus aureus ATCC 29213 assessed as inhibition of bacterial growth in presence of 4.5 mmol/L K+ (reference value: […] microg/ml); assay type: functional
Staphylococcus aureus [12] = test: Antibacterial activity against Staphylococcus aureus ATCC 29213 assessed as inhibition of bacterial growth in presence of 2.50 mmol/L Ca2+ (reference value: […] microg/ml); assay type: functional
Staphylococcus aureus [13] = test: Antibacterial activity against Staphylococcus aureus ATCC 29213 assessed as inhibition of bacterial growth in presence of 1.00 mmol/L Mg2+ (reference value: […] microg/ml); assay type: functional
Staphylococcus aureus [14] = test: Antibacterial activity against Staphylococcus aureus ATCC 29213 assessed as inhibition of bacterial growth in presence of 19 umol/L Zn2+ (reference value: […] microg/ml); assay type: functional
Staphylococcus aureus [15] = test: Antibacterial activity against Staphylococcus aureus ATCC 29213 assessed as inhibition of bacterial growth in presence of 20 umol/L […] (reference value: […] microg/ml); assay type: functional
Staphylococcus aureus [16] = test: Antibacterial activity against methicillin resistant Staphylococcus aureus N315 assessed as inhibition of bacterial growth in presence of 140 mmol/L Na+ (reference value: […] microg/ml); assay type: functional
Staphylococcus aureus [17] = test: Antibacterial activity against methicillin resistant Staphylococcus aureus N315 assessed as inhibition of bacterial growth in presence of 4.5 mmol/L K+ (reference value: […] microg/ml); assay type: functional
Staphylococcus aureus [18] = test: Antibacterial activity against methicillin resistant Staphylococcus aureus N315 assessed as inhibition of bacterial growth in presence of 2.50 mmol/L Ca2+ (reference value: […] microg/ml); assay type: functional
Staphylococcus aureus [19] = test: Antibacterial activity against methicillin resistant Staphylococcus aureus N315 assessed as inhibition of bacterial growth in presence of 1.00 mmol/L Mg2+ (reference value: […] microg/ml); assay type: functional
Staphylococcus aureus [20] = test: Antibacterial activity against methicillin resistant Staphylococcus aureus N315 assessed as inhibition of bacterial growth in presence of 19 umol/L Zn2+ (reference value: […] microg/ml); assay type: functional
Staphylococcus aureus [21] = test: Antibacterial activity against methicillin resistant Staphylococcus aureus N315 assessed as inhibition of bacterial growth in presence of 20 umol/L Fe2+ (reference value: […] microg/ml); assay type: functional
Staphylococcus aureus [22] = test: Antibacterial activity against methicillin resistant Staphylococcus aureus N315 assessed as inhibition of bacterial growth in presence of 20 umol/L […] (reference value: […] microg/ml); assay type: functional
Staphylococcus aureus [23] = test: Antibacterial activity against methicillin resistant Staphylococcus aureus NCTC10442 assessed as inhibition of bacterial growth in presence of 140 mmol/L Na+ (reference value: […] microg/ml); assay type: functional
Staphylococcus aureus [24] = test: Antibacterial activity against methicillin resistant Staphylococcus aureus NCTC10442 assessed as inhibition of bacterial growth in presence of 4.5 mmol/L K+ (reference value: […] microg/ml); assay type: functional
Staphylococcus aureus [25] = test: Antibacterial activity against methicillin resistant Staphylococcus aureus NCTC10442 assessed as inhibition of bacterial growth in presence of 2.50 mmol/L Ca2+ (reference value: […] microg/ml); assay type: functional
Staphylococcus aureus [26] = test: Antibacterial activity against methicillin resistant Staphylococcus aureus NCTC10442 assessed as inhibition of bacterial growth in presence of 1.00 mmol/L Mg2+ (reference value: […] microg/ml); assay type: functional
Staphylococcus aureus [27] = test: Antibacterial activity against methicillin resistant Staphylococcus aureus NCTC10442 assessed as inhibition of bacterial growth in presence of 19 umol/L Zn2+ (reference value: […] microg/ml); assay type: functional
Staphylococcus aureus [28] = test: Antibacterial activity against methicillin resistant Staphylococcus aureus NCTC10442 assessed as inhibition of bacterial growth in presence of 20 umol/L Fe2+ (reference value: […] microg/ml); assay type: functional
Staphylococcus aureus [29] = test: Antibacterial activity against methicillin resistant Staphylococcus aureus NCTC10442 assessed as inhibition of bacterial growth in presence of 20 umol/L […] (reference value: […] microg/ml); assay type: functional
Cell membrane [30] = test: Induction of cell membrane disruption in Staphylococcus aureus ATCC 29213 assessed as increase in fluorescence intensity measured for 100 mins by SYTOX green assay; assay type: subcellular; details: DDE = dose-dependent effect
Cell membrane [31] = test: Induction of cell membrane disruption in methicillin resistant Staphylococcus aureus NCTC10442 assessed as increase in fluorescence intensity measured for 100 mins by SYTOX green assay; assay type: subcellular; details: DDE = dose-dependent effect
[32] = Displacement of BODIPY-TR-cadaverine from Lipoteichoic acid at 4 times MIC preincubated with LTA for 15 mins followed by compound addition and measured for 30 mins by fluorescence based microplate reader assay; details: time 45.0 min
[33] = Displacement of BODIPY-TR-cadaverine from Lipoteichoic acid preincubated with LTA for 15 mins followed by compound addition and measured for 30 mins by fluorescence based microplate reader assay; details: time 45.0 min; DDE = dose-dependent effect
Cell membrane [34] = test: Disruption of membrane integrity in Staphylococcus aureus ATCC 29213 assessed as cell membrane damage at 8 times MIC incubated for 2 hrs by Live/dead staining based laser confocal microscopy analysis; assay type: subcellular
Staphylococcus aureus [35] = test: Induction of morphological changes in Staphylococcus aureus ATCC 29213 assessed as perforation at 8 times MIC incubated for 2 hrs by TEM analysis; assay type: functional, organism-based
[36] = Cytotoxicity against mouse NCTC clone 929 cells assessed as cell viability at 50 ug/ml after 24 hrs by CCK8 assay; assay type: toxicity, cell-based; details: at 50 µg/mL, read-out: Activity
[37] = Cytotoxicity against human HEK293 cells assessed as cell viability at 50 ug/ml after 24 hrs by CCK8 assay; assay type: toxicity, cell-based; details: at 50 µg/mL, read-out: Activity
Staphylococcus aureus [38] = test: Antibacterial activity against Staphylococcus aureus ATCC 29213 infected in mouse corneal infection model assessed as log reduction in bacterial load at 5 mg/ml pre-infected with bacteria for 24 hrs followed by compound administered four times a day for 3 consecutive weeks; assay type: functional; details: time 3 weeks
Staphylococcus aureus [39] = test: Antibacterial activity against Staphylococcus aureus ATCC 15981 assessed as inhibition of bacterial growth incubated for 24 hrs by microbroth dilution method; assay type: functional
Staphylococcus aureus [40] = test: Antibacterial activity against Staphylococcus aureus ATCC 29213 infected in mouse corneal infection model assessed as log reduction in bacterial load at 50 mg/ml pre-infected with bacteria for 24 hrs followed by compound administered four times a day for 3 consecutive weeks; assay type: functional; details: time 3 weeks

In the case of `COC(=O)[C@H](CCCNC(=N)N)NC(=O)COc1ccc(C(C)(C)CC(C)(C)C)cc1Sc1cc(C(C)(C)CC(C)(C)C)ccc1OCC(=O)N[C@@H](CCCNC(=N)N)C(=O)OC`, the HC50 at 1 h [1] is reported as greater than 200 µg/mL, the MIC (Staphylococcus aureus [2]) is reported as 1.56 µg/mL (≈ 1.73 µM) and the MIC (Staphylococcus aureus [3]) is reported as 0.78 µg/mL (≈ 0.867 µM). It also gave an MIC (Staphylococcus aureus [4]) of 0.78 µg/mL (≈ 0.867 µM), an MIC (Bacillus subtilis) of 0.78 µg/mL (≈ 0.867 µM) and an MIC [5] of 0.39 µg/mL (≈ 0.434 µM). For the same molecule, the MIC [6] was 0.39 µg/mL (≈ 0.434 µM), the MIC (Enterococcus faecalis) was 0.78 µg/mL (≈ 0.867 µM) and the MIC (Staphylococcus aureus [7]) was 0.78 µg/mL. The Activity (Staphylococcus aureus [8]) was 99.99%, the Activity (Staphylococcus aureus [9]) was “Active” and the MIC (Staphylococcus aureus [10]) was 1.56 µg/mL. For the same molecule, the MIC (Staphylococcus aureus [11]) was 1.56 µg/mL, the MIC (Staphylococcus aureus [12]) was 1.56 µg/mL and the MIC (Staphylococcus aureus [13]) was 1.56 µg/mL. For the same molecule, the MIC (Staphylococcus aureus [14]) was 0.78 µg/mL, the MIC (Staphylococcus aureus [15]) was 0.78 µg/mL and the MIC (Staphylococcus aureus [16]) was 0.39 µg/mL. For the same molecule, the MIC (Staphylococcus aureus [17]) was 0.78 µg/mL, the MIC (Staphylococcus aureus [18]) was 0.78 µg/mL and the MIC (Staphylococcus aureus [19]) was 0.78 µg/mL. It also gave an MIC (Staphylococcus aureus [20]) of 0.78 µg/mL, an MIC (Staphylococcus aureus [21]) of 0.78 µg/mL and an MIC (Staphylococcus aureus [22]) of 0.78 µg/mL. It also gave an MIC (Staphylococcus aureus [23]) of 0.78 µg/mL, an MIC (Staphylococcus aureus [24]) of 0.78 µg/mL and an MIC (Staphylococcus aureus [25]) of 0.78 µg/mL. For the same molecule, the MIC (Staphylococcus aureus [26]) was 0.78 µg/mL, the MIC (Staphylococcus aureus [27]) was 0.78 µg/mL and the MIC (Staphylococcus aureus [28]) was 0.78 µg/mL. The MIC (Staphylococcus aureus [29]) was 0.78 µg/mL, the Activity (Cell membrane [30]) was “Dde” and the Activity (Cell membrane [31]) was “Dde”. The Activity [32] was 62.2%, the Activity [33] was “Dde” and the Activity (Cell membrane [34]) was “Active”. For the same molecule, the Activity (Staphylococcus aureus [35]) was “Active”, the viability at 24 h, 50 ug/ml [36] was 53.1% and the viability at 24 h, 50 ug/ml [37] was 55.9%. For the same molecule, the “log(activity)” value (Staphylococcus aureus [38]) was 6.81 and the MIC (Staphylococcus aureus [39]) was 0.78 µg/mL (≈ 0.867 µM).
In the case of `CN[C@H](CC(C)C)C(=O)N[C@H]1C(=O)N[C@@H](CC(N)=O)C(=O)N[C@H]2C(=O)N[C@H]3C(=O)N[C@H](C(=O)N[C@H](C(=O)O)c4cc(O)cc(O)c4-c4cc3ccc4O)[C@H](O)c3ccc(c(Cl)c3)Oc3cc2cc(c3O[C@@H]2O[C@H](CO)[C@@H](O)[C@H](O)[C@H]2O[C@H]2C[C@](C)(N)[C@H](O)[C@H](C)O2)Oc2ccc(cc2Cl)[C@H]1O` [VANCOMYCIN], the MIC (Staphylococcus aureus [2]) is reported as 0.78 µg/mL (≈ 0.538 µM), the MIC (Staphylococcus aureus [3]) is reported as 1.56 µg/mL (≈ 1.08 µM) and the MIC (Staphylococcus aureus [4]) is reported as 0.78 µg/mL (≈ 0.538 µM). For the same molecule, the “log(activity)” value (Staphylococcus aureus [40]) was 5.21.
